Reference: patent US10392383B2, “3-(1H-benzo[d]imidazol-2-yl)-1H-pyrazolo[4,3-b]pyridines and therapeutic uses thereof” (Samumed, LLC, priority 2015, dated 2019)

Columns and labels:
Type in all cases: cell-based
[1] = test system: SW480 colon cancer cells; experiment: Cell viability assay (CellTiter-Blue) in SW480 cells; conditions: Homo sapiens, 96 h, four days; for EC50: CellTiter-Blue, 10 μM to 0.0045 μM; for inhibition at 10 µM: read-out: percent inhibition at 10 μM (given for EC50 of >10 μM)
Protocol: Representative compounds were screened using the following assay procedure to assess the effect on cell viability as described below.
Each compound was dissolved in DMSO as a 10 mM stock and used to prepare compound source plates. Serial dilution (1:3, 8-point dose-response curves from 10 μM to 0.0045 μM) and compound transfer was performed using the ECHO 550 (Labcyte, Sunnyvale, Calif.) into 96-well clear bottom, black-walled plates (Corning-Costar).
Approximately 2×10^3 SW480 colon cancer cells were seeded into each well and allowed to incubate in the presence or absence of compound for four days at 37° C./5% CO2. Eight replicates of DMSO-treated cells served as controls and cells treated with compound were performed in duplicate.
After incubation, 20 μL of CellTiter-Blue (Promega) was added to each well allowed to incubate for approximately 3 hours. This reagent was a buffered solution which contains resazurin, metabolically active cells were able to reduce rezarurin (blue) into resorufin (pink) which was highly fluorescent. This measured fluorescence was used as a readout for cell viability.
After incubation, the plates were read at Ex 560 nm Em 590 nm (Cytation 3, BioTek). Dose-response curves were generated and EC50 concentration values were calculated using non-linear regression curve fit in the GraphPad Prism (San Diego, Calif.) or Dotmatics' Studies Software (Bishops Stortford, UK). For EC50 of >10 μM, the percent inhibition at 10 μM is provided.

[2] = test system: IL-6 (THP-1 cells); experiment: IL-6 inhibition in LPS-stimulated THP-1 monocytes (HTRF); conditions: Homo sapiens, IL-6 HTRF; for EC50: 500 ng/mL LPS, Table 6; for inhibition at 10 µM: LPS, Table 6, read-out: percent inhibition at 10 μM (given in parentheses for EC50 >10 μM)
Protocol: Human Monocyte Cell Culture: Human monocyte cell line (THP-1 cells; Catalog # TIB-202, ATCC, Manassas, Va.) were cultured in Roswell Park Memorial Institute (RPMI) 1640 Medium (Catalog #21870-100, Buffalo, N.Y.) with 1% L-glutamine, 1% HEPES, 1% Sodium Pyruvate, 2% Sodium Bicarbonate supplemented with 100 units/mL penicillin, 50 μg/mL streptomycin, 2-mercaptoethanol (0.05 mM) [basal medium] and 10% fetal bovine serum (Catalog #16140089, Life Technologies, Carlsbad, Calif.) at 37° C. and 5% CO2.
Compound Screening: THP-1 cells were cultured in basal media with 1% FBS for 24 hours before the start of the assay. Each compound was dissolved in DMSO as a 10 mM stock and used to prepare compound source plates. Serial dilution (1:3, 10-point dose-response curves starting from 10 μM) and compound transfer was performed using the ECHO 550 (Labcyte, Sunnyvale, Calif.) into 384-well white low volume assay plates (Greiner Bio-One) with appropriate DMSO backfill for a final DMSO concentration of 0.1%. THP-1 cells were plated at 5000 cells/well in the 384-well plates and incubated at 37° C. for 2 h. 500 ng/mL of LPS was added after 2 hours and cells were incubated for another 22 hours at 37° C. Plates were spun in a centrifuge for 1 minute at […] and a mixture of anti-IL6 XL665, and anti-IL6 Cryptate diluted in reconstitution buffer (Cisbio Inc.) was added to each well. Following incubation for 3 hrs at room temperature, Homogeneous Time-Resolved Fluorescence (HTRF) was measured using the Envision (Perkin Elmer) at 665 nm and […]. The ratio of fluorescence at 665 nm to 620 nm was used as a readout for IL6 quantification. All samples were processed in duplicate. Readings were normalized to DMSO treated cells and normalized activities were utilized for EC50 calculations using the dose-response log (inhibitor) vs. response-variable slope (four parameters) nonlinear regression feature available in GraphPad Prism 5.0 (or Dotmatics). For EC50 of >10 μM, the percent inhibition at 10 μM is provided.

[3] = test system: Wnt activity (Sp5-Luc reporter, Wnt-responsive promoter) in SW480 colon carcinoma cells; experiment: Wnt activity screening assay: Sp5-Luc reporter gene assay in SW480 cells; conditions: Homo sapiens; for EC50: overnight incubation, 10-point curve starting from 10 μM; for inhibition at 10 µM: read-out: percent inhibition at 10 μM (given for EC50 of >10 μM)
From the text: The screening assay for Wnt activity is described as follows. Reporter cell lines can be generated by stably transducing cancer cell lines (e.g., colon cancer) or primary cells (e.g., IEC-6 intestinal cells) with a lentiviral construct that includes a Wnt-responsive promoter driving expression of the firefly luciferase gene.
SW480 colon carcinoma cells were transduced with a lentiviral vector expressing luciferase with a human Sp5 promoter consisting of a sequence of eight TCF/LEF binding sites. SW480 cells stably expressing the Sp5-Luc reporter gene and a hygromycin resistance gene were selected by treatment with 150 μg/mL of hygromycin for 7 days. These stably transduced SW480 cells were expanded in cell culture and used for all further screening activities. Each compound was dissolved in DMSO as a 10 mM stock and used to prepare compound source plates. Serial dilution (1:3, 10-point dose-response curves starting from 10 μM) and compound transfer was performed using the ECHO 550 (Labcyte, Sunnyvale, Calif.) into 384-well white solid bottom assay plates (Greiner Bio-One) with appropriate DMSO backfill for a final DMSO concentration of 0.1%. For Sp5-Luc reporter gene assays, the cells were plated at 4,000 cells/well in 384-well plates with medium containing 1% fetal bovine serum and incubated overnight at 37° C. and 5% CO2. Following incubation, 20 μl of BrightGlo luminescence reagent (Promega) was added to each well of the 384-well assay plates. The plates were placed on an orbital shaker for 2 min and then luminescence was quantified using the Envision (Perkin Elmer) plate reader. Readings were normalized to DMSO only treated cells, and normalized activities were utilized for EC50 calculations using the dose-response log (inhibitor) vs. response-variable slope (four parameters) nonlinear regression feature available in GraphPad Prism 5.0 (or Dotmatics). For EC50 of >10 μM, the percent inhibition at 10 μM is provided.

Compound	EC50 [1] [µM]	EC50 [2] [µM]	EC50 [3] [µM]	inhibition at 10 µM [1] [%]	inhibition at 10 µM [2] [%]	inhibition at 10 µM [3] [%]
COc1cccc(-c2cccc3[nH]c(-c4n[nH]c5ccc(-c6cncc(OC7CCNCC7)c6)nc45)nc23)c1 [Compound 1025, 3-(4-(3-Methoxyphenyl)-1H-benzo[d]imidazol-2-yl)-5-(5-(piperidin-4-yloxy)pyridin-3-yl)-1H-pyrazolo[4,3-b]pyridine]	5.74	4.49	3.97			
c1ccc(CNCc2cncc(-c3ccc4[nH]nc(-c5nc6c(-c7cccnc7)cccc6[nH]5)c4n3)c2)cc1 [Compound 108, N-Benzyl-1-(5-(3-(4-(pyridin-3-yl)-1H-benzo[d]imidazol-2-yl)-1H-pyrazolo [4,3-b]pyridin-5-yl)pyridin-3-yl)methanamine]	3.18	2.12	2.3			
O=C(CC1CCNCC1)Nc1cncc(-c2ccc3[nH]nc(-c4nc5c(-c6ccsc6)cccc5[nH]4)c3n2)c1 [Compound 673, 2-(Piperidin-4-yl)-N-(5-(3-(4-(thiophen-3-yl)-1H-benzo[d]imidazol-2-yl)-1H-pyrazolo[4,3-b]pyridin-5-yl)pyridin-3-yl)acetamide]	> 10	> 10	> 10	4.3	24.8	14.9
COc1cccc(-c2cccc3[nH]c(-c4n[nH]c5ccc(-c6cncc(NC(=O)C7CCCCC7)c6)nc45)nc23)c1 [Compound 1012, N-(5-(3-(4-(3-Methoxyphenyl)-1H-benzo[d]imidazol-2-yl)-1H-pyrazolo[4,3-b]pyridin-5-yl)pyridin-3-yl)cyclohexanecarboxamide]	> 10	> 10	> 10	4.6	33	3.6
Fc1cccc(-c2cccc3[nH]c(-c4n[nH]c5ccc(C6=CCNCC6)nc45)nc23)c1 [Compound 506, 3-(4-(3-Fluorophenyl)-1H-benzo[d]imidazol-2-yl)-5-(1,2,3,6-tetrahydropyridin-4-yl)-1H-pyrazolo[4,3-b]pyridine]	4.16	> 10	> 10		25.9	10
c1cc(-c2ccc3c(c2)OCO3)c2nc(-c3n[nH]c4ccc(C5CCNCC5)nc34)[nH]c2c1 [Compound 1108, 3-(4-(Benzo[d][1,3]dioxol-5-yl)-1H-benzo[d]imidazol-2-yl)-5-(piperidin-4-yl)-1H-pyrazolo[4,3-b]pyridine]	2.28	> 10	3.52		4.6	

The next lines start with results.

EC50 [1] [µM]	EC50 [2] [µM]	EC50 [3] [µM]	Compound	inhibition at 10 µM [1] [%]	inhibition at 10 µM [2] [%]	inhibition at 10 µM [3] [%]
1.64	0.487	1.34	Nc1cncc(-c2ccc3[nH]nc(-c4nc5c(-c6ccccc6F)cccc5[nH]4)c3n2)c1 [Compound 59, 5-(3-(4-(2-Fluorophenyl)-1H-benzo[d]imidazol-2-yl)-1H-pyrazolo[4,3-b]pyridin-5-yl)pyridin-3-amine]			
> 10	> 10	> 10	O=C(Nc1cncc(-c2ccc3[nH]nc(-c4nc5c(-c6ccccn6)cccc5[nH]4)c3n2)c1)c1ccccc1 [Compound 151, N-(5-(3-(4-(Pyridin-2-yl)-1H-benzo[d]imidazol-2-yl)-1H-pyrazolo[4,3-b]pyridin-5-yl)pyridin-3-yl)benzamide]	20.8	22	34.2
> 10	0.161	3.79	CCC(=O)Nc1cncc(-c2ccc3[nH]nc(-c4nc5c(N6CCCCC6)cccc5[nH]4)c3n2)c1 [Compound 169, N-(5-(3-(4-(Piperidin-1-yl)-1H-benzo[d]imidazol-2-yl)-1H-pyrazolo[4,3-b]pyridin-5-yl)pyridin-3-yl)propionamide]	41.4		
> 10	> 10	> 10	CC(C)(C)CC(=O)Nc1cncc(-c2ccc3[nH]nc(-c4nc5c(-c6ccccc6F)cccc5[nH]4)c3n2)c1 [Compound 72, N-(5-(3-(4-(2-Fluorophenyl)-1H-benzo[d]imidazol-2-yl)-1H-pyrazolo[4,3-b]pyridin-5-yl)pyridin-3-yl)-3,3-dimethylbutanamide]	2	14.1	11.6
> 10	> 10	> 10	c1ccc2[nH]c(-c3n[nH]c4ccc(-c5cn[nH]c5)nc34)nc2c1 [Compound 651, 3-(1H-Benzo[d]imidazol-2-yl)-5-(1H-pyrazol-4-yl)-1H-pyrazolo[4,3-b]pyridine]	33.9	0	40.2
> 10	1	> 10	Cc1cn(-c2cccc3[nH]c(-c4n[nH]c5ccc(-c6cncc(OCCN(C)C)c6)nc45)nc23)cn1 [Compound 627, N,N-Dimethyl-2-((5-(3-(4-(4-methyl-1H-imidazol-1-yl)-1H-benzo[d]imidazol-2-yl)-1H-pyrazolo[4,3-b]pyridin-5-yl)pyridin-3-yl)oxy)ethan-1-amine]	14.1		38.1
8.48	> 10	3.01	CC(C)(C)C(=O)Nc1cncc(-c2ccc3[nH]nc(-c4nc5c(-c6ccc(F)cc6)cccc5[nH]4)c3n2)c1 [Compound 36, N-(5-(3-(4-(4-Fluorophenyl)-1H-benzo[d]imidazol-2-yl)-1H-pyrazolo[4,3-b]pyridin-5-yl)pyridin-3-yl)pivalamide]		25.7	
> 10	8.32	> 10	CN1CCN(c2cccc3[nH]c(-c4n[nH]c5ccc(-c6cncc(N)c6)nc45)nc23)CC1 [Compound 227, 5-(3-(4-(4-Methylpiperazin-1-yl)-1H-benzo[d]imidazol-2-yl)-1H-pyrazolo [4,3-b]pyridin-5-yl)pyridin-3-amine]	18.4		48.8
